Values after ≈ are worked out from the molar mass of the structure shown. Counter-ions that a name gives are not always drawn. Like-named read-outs stand apart in the source and are kept apart here.
Experiments:
[1] = in vivo; type: in vivo; conditions: intraperitoneal; for MLD (Minimum Lethal Dose): deaths before exposure to chloroform; for selectivity ratio: mouse, in vivo, ip, calculated with Minimum Lethal Dose data, read-out: MLD/ED50 (Therapeutic Index)
Description: (§1) The tests compounds were administered to groups consisting of 5 mice in varying intraperitoneal doses. Ten minutes after administration of a given dose of a compound, a mouse was transferred to a covered 300 ml glass beaker which contained a wad of cotton saturated with about 20 ml of chloroform. The animal was observed closely and removed from the beaker immediately after respiratory arrest. The heart was quickly exposed by making an incision through the abdomen, diaphragm, thorax and pericardium for visual inspection of ventricular rate and rhythm. Ventricular contractions were counted for 30 seconds. According to the procedure reported by Lawson (J. Pharmacol. Exp. Therap., 160:22 [1968]), animals with a ventricular rate not exceeding 100 contractions during the 30 second observation period were considered protected. Results obtained with each dose were used to calculate the mean effective doses (ED50) after the method of Litchfield and Wilcoxon (J. Pharmacol. Exp. Therap. 96: 99-113 [ 1949]).

[2] = system: ventricular rate and rhythm; assay: Antiarrhythmic activity: protection against chloroform-induced ventricular arrhythmia in mice (Lawson); type: in vivo; conditions: Mus musculus, ip, 10 min; intraperitoneal, 10 min before chloroform; protected = ventricular rate not exceeding 100 contractions in 30 s; groups of 5 mice; parentheses = 95% confidence limits; read-out: ED50 (95% CL)
Description: The antiarrhythmic activity of the compounds of this invention, specifically those enumerated in the Summary and presented as the above examples, was compared to that of diphenylhydantoin (I), 3-(3-diethylaminopropyl)- 5,5-diphenylhydantoin (II), 3-[3-(1-piperidyl)-propyl]- 5,5-diphenylhydantoin (III), and 3-(3-morpholinopropyl)-5,5-diphenylhydantoin (IV).
as §1
In Table A, the compounds of this invention are listed by the arabic numeral assigned in the Summary and the above corresponding Example Number; the Roman numerals refer to the compounds so designated above in this Example and in the Description of the Prior Art.

[3] = system: Guinea pig atria; assay: Refractory period in isolated atria, electrical stimulation (Dawes); conditions: Cavia porcellus, read-out: EC50 (amount necessary for increasing the minimum interval by 50 percent over control values)
Description: The effect of the compounds of this invention on the refractory period in the atrium was studied and compared to that hydantoin according to the procedure described by Dawes (Brit. J. Pharmacol., 1: 90, [1946]).
Guinea pig atria, suspended in an isolated organ chamber, were stimulated electrically at increasing frequencies while the resulting mechanical contractions were recorded. The minimum interval between two consecutive stimuli necessary for eliciting a mechanical response was determined before and after incubation with varying concentrations of the test compounds. The minimum interval thus determined is an indirect measure of the refractory period in the tissue, and a prolongation of this interval indicates an increased refractory period. From the increase in minimum interval observed with each concentration, the amount necessary for increasing the interval by 50 percent over control values (EC50) was determined for each compound.

[4] = prior art, cited from earlier work
[5] = system: heart; conditions: prior art; cited from earlier work
[6] = extent of activity of DPH; cited from earlier work
[7] = guinea pig atria, electrical stimulation, indirect measure of refractory period

| SMILES | MLD (Minimum Lethal Dose) [1] | selectivity ratio [1] | ED50 [2] | EC50 [3, 7] | also measured |
| --- | --- | --- | --- | --- | --- |
| Cl.O=C1NC(c2ccccc2)(c2ccc(Br)cc2)C(=O)N1CCCN1CCC(c2ccccc2)CC1 (centres unmarked) [Compound 11, 3-[3-(4-phenyl-1-piperidyl)propyl]-5-(4-bromophenyl)-5-phenylhydantoin hydrochloride] | > 100 mg/kg | > 2.98 | 33.5 mg/kg | 4 µg/mL |  |
| Cc1ccc(C2(c3ccccc3)NC(=O)N(CCCN3CCC(c4ccccc4)CC3)C2=O)cc1.O=C(O)/C=C\C(=O)O (centres unmarked) [Compound 12, 3-[3-(4-phenyl-1-piperidyl)propyl]-5-phenyl-5-(4-tolyl)hydantoin maleate] | > 100 mg/kg | > 5.13 | 19.5 mg/kg | 4.8 µg/mL |  |
| CC(C)(C)NCC(O)CN1C(=O)NC(c2ccccc2)(c2ccccc2)C1=O.Cl (centres unmarked) [Compound 6, 3-(3-t-butylamino-2-hydroxypropyl)-5,5-diphenylhydantoin hydrochloride] | 100 mg/kg | 10.6 | 9.4 mg/kg | 1.5 µg/mL |  |
| Cc1ccc(C2(c3ccc(C)cc3)NC(=O)N(CCCN3CCC(O)(c4ccccc4)CC3)C2=O)cc1 [Compound 18, 3-[3-(4-hydroxy-4-phenyl-1-piperidyl)propyl]-5,5-di-(4-tolyl)hydantoin] | > 100 mg/kg | > 4.17 | 24 mg/kg |  | EC50 [3]: 1.9 µg/mL (≈ 3.82 µM) |
| O=C1NC(c2ccccc2)(c2ccccc2)C(=O)N1CCN1CC=C(c2ccccc2)CC1 [Compound 4, 5,5-diphenyl-3-[2-(4-phenyl-1,2,3,6-tetrahydropyridyl)ethyl]hydantoin hydrochloride] | > 178 mg/kg | > 1.85 | 96 mg/kg |  | EC50 [3]: 5.7 µg/mL |
| O=C1NC(c2ccccc2)(c2ccc([N+](=O)[O-])cc2)C(=O)N1CCCN1CCC(c2ccccc2)CC1 (centres unmarked) [Compound 14, 3-[3-(4-phenyl-1-piperidyl)propyl]-5-(4-nitrophenyl)-5-phenylhydantoin] | > 100 mg/kg | > 9.52 | 10.5 mg/kg | 8.3 µg/mL (≈ 16.6 µM) |  |
| Nc1ccc(C2(c3ccccc3)NC(=O)N(CCCN3CCC(c4ccccc4)CC3)C2=O)cc1 (centres unmarked) [Compound 15, 3-[3-(4-phenyl-1-piperidyl)propyl]-5-(4-aminophenyl)-5-phenylhydantoin] | > 100 mg/kg | > 29.4 | 3.4 mg/kg | 3.7 µg/mL (≈ 7.9 µM) |  |
| Cl.O=C1NC(c2ccccc2)(c2ccccc2)C(=O)N1CCCN1CCC(O)(c2ccccc2)CC1 [Compound 5, 5,5-diphenyl-3-[3-(4-hydroxy-4-phenyl-1-piperidyl)propyl]hydantoin hydrochloride] | 31 mg/kg | 5.35 | 5.8 mg/kg |  | EC50 [3]: > 10 µg/mL |
| O=C(O)/C=C\C(=O)O.O=C1NC(c2ccccc2)(c2ccccc2)C(=O)N1CCCN1CCN(c2ccccc2)CC1 [Compound 1, 3-[3-(4-phenyl-1-piperazinyl)propyl]-5,5-diphenylhydantoin maleate] | > 160 mg/kg | > 9.77 | 16.4 mg/kg | 4.4 µg/mL |  |
| Cc1ccc(C2(c3ccc(C)cc3)NC(=O)N(CCCN3CCC(c4ccccc4)CC3)C2=O)cc1 [Compound 13, 3-[3-(4-phenyl-1-piperidyl)propyl]-5,5-di(4-tolyl)hydantoin] | > 100 mg/kg | > 22.2 | 4.5 mg/kg | > 10 µg/mL |  |
| COc1ccc(C2(c3ccc(OC)cc3)NC(=O)N(CCCN3CCC(c4ccccc4)CC3)C2=O)cc1.Cl [Compound 10, 3-[3-(4-phenyl-1-piperidyl)propyl]-5,5-di(4-methoxyphenyl)hydantoin hydrochloride] | > 178 mg/kg | > 5.24 | 34 mg/kg | 6.4 µg/mL |  |
| O=C1NC(c2ccccc2)(c2ccccc2)C(=O)N1CCCN1CCOCC1 [IV, 3-(3-morpholinopropyl)-5,5-diphenylhydantoin, reference compound] | 178 mg/kg | 2.34 | 76 mg/kg |  |  |
| O=C1NC(c2ccccc2)(c2ccccc2)C(=O)N1CCCN1CCC(c2ccccc2)CC1 [Compound 2, 3-[3-(4-phenyl-1-piperidyl)propyl]-5,5-diphenylhydantoin] | 320 mg/kg | 23.7 | 13.5 mg/kg | 1.1 µg/mL (≈ 2.43 µM) |  |
| O=C1NC(=O)C(c2ccccc2)(c2ccccc2)N1 [I, 5,5-diphenyl-2,4-imidazolidinedione] | 1000 mg/kg |  | 394 mg/kg | 20 µg/mL (≈ 79.3 µM) | side effects of large doses ([4]; large doses): atrio-ventricular blockage, bradycardia, or even cardiac arrest; untoward side effects [4]: dizziness, nausea, emesis, nystigmus, and ataxia; action on ventricular arrhythmias induced by digitalis [5]: antagonize ventricular arrhythmias induced by digitalis; atrio-ventricular nodal conduction [5]: enhances atrio-ventricular nodal conduction; effective refractory period [5]: reduces the effective refractory period; ventricular automaticity [5]: depresses ventricular automaticity |
| Nc1ccc(C2(c3ccccc3)NC(=O)NC2=O)cc1 (centres unmarked) [5-(4-aminophenyl)-5-phenylhydantoin] |  |  |  |  | activity relative to DPH [6]: 50% |
| Cl.O=C1NC(c2ccc(Cl)cc2)(c2ccc(Cl)cc2)C(=O)N1CCCN1CCC(c2ccccc2)CC1 [Compound 8, 3-[3-(4-phenyl-1-piperidyl)propyl]-5,5-di(4-chlorophenyl)hydantoin hydrochloride] | > 178 mg/kg | > 2.28 | 75 mg/kg | > 10 µg/mL |  |
| CCN(CC)CCCN1C(=O)NC(c2ccccc2)(c2ccccc2)C1=O [II, 3-(3-diethylaminopropyl)-5,5-diphenylhydantoin, reference compound] | 56 mg/kg | 4 | 14 mg/kg |  |  |
| O=C1NC(c2ccccc2)(c2ccccc2)C(=O)N1CCCN1CCCCC1 [III, 3-[3(1-piperidyl)propyl]-5,5-diphenylhydantoin, reference compound] | 31 mg/kg | 1.63 | 19 mg/kg |  |  |

Source: US4006232A, “Therapeutic method of treating cardiac arrhythmias utilizing 3-substituted diphenylhydantoins” (Miles Laboratories, Inc., priority 1974, dated 1977)
